Assay results as given in article PMC6566410, “Novel Diamide-Based Benzenesulfonamides as Selective Carbonic Anhydrase IX Inhibitors Endowed with Antitumor Activity: Synthesis, Biological Evaluation and In Silico Insights” (International Journal of Molecular Sciences, 2019).

Key:
Assay in all cases: NCI one-dose SRB assay
Assay type in all cases: cell-based
[1] = test system: 786-0; conditions: Homo sapiens, 786-0 (Renal Cancer), 1.00E-5 Molar, read-out: Growth Percent
Summary of the method: (§1)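 Read-out: sulforhodamine B colorimetric measurement of cell growth and viability. Each compound was applied once at 10^−5 M across sixty cancer cell lines under the NCI Drug Evaluation Branch protocol.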

[2] = test system: UACC-257; conditions: Homo sapiens, UACC-257 (Melanoma), 1.00E-5 Molar, read-out: Growth Percent
Summary of the method: as §1

[3] = test system: HCT-15; conditions: Homo sapiens, HCT-15 (Colon Cancer), 1.00E-5 Molar, read-out: Growth Percent
Summary of the method: as §1

[4] = test system: HT29; conditions: Homo sapiens, HT-29, HT29 (Colon Cancer), 1.00E-5 Molar, read-out: Growth Percent
Summary of the method: as §1

[5] = test system: NCI-H322M; conditions: Homo sapiens, NCI-H322M (Non-Small Cell Lung Cancer), 1.00E-5 Molar, read-out: Growth Percent
Summary of the method: as §1

[6] = test system: NCI-H460; conditions: Homo sapiens, NCI-H460 (Non-Small Cell Lung Cancer), 1.00E-5 Molar, read-out: Growth Percent
Summary of the method: as §1

[7] = test system: ACHN; conditions: Homo sapiens, ACHN (Renal Cancer), 1.00E-5 Molar, read-out: Growth Percent
Summary of the method: as §1

[8] = test system: CAKI-1; conditions: Homo sapiens, CAKI-1 (Renal Cancer), 1.00E-5 Molar, read-out: Growth Percent
Summary of the method: as §1

[9] = test system: MALME-3M; conditions: Homo sapiens, MALME-3M (Melanoma), 1.00E-5 Molar, read-out: Growth Percent
Summary of the method: as §1

[10] = test system: HS 578T; conditions: Homo sapiens, HS 578T (Breast Cancer), 1.00E-5 Molar, read-out: Growth Percent
Summary of the method: as §1

[11] = test system: MDA-MB-231/ATCC; conditions: Homo sapiens, MDA-MB-231/ATCC (Breast Cancer), 1.00E-5 Molar, read-out: Growth Percent
Summary of the method: as §1

[12] = test system: IGROV1; conditions: Homo sapiens, IGROV-1, IGROV1 (Ovarian Cancer), 1.00E-5 Molar, read-out: Growth Percent
Summary of the method: as §1

[13] = test system: RPMI-8226; conditions: Homo sapiens, RPMI-8226 (Leukemia), 1.00E-5 Molar, read-out: Growth Percent
Summary of the method: as §1

[14] = test system: SF-539; conditions: Homo sapiens, SF-539 (CNS Cancer), 1.00E-5 Molar, read-out: Growth Percent
Summary of the method: as §1

[15] = test system: PC-3; conditions: Homo sapiens, PC-3 (Prostate Cancer), 1.00E-5 Molar, read-out: Growth Percent
Summary of the method: as §1

[16] = test system: TK-10; conditions: Homo sapiens, TK-10 (Renal Cancer), 1.00E-5 Molar, read-out: Growth Percent
Summary of the method: as §1

[17] = test system: HOP-92; conditions: Homo sapiens, HOP-92 (Non-Small Cell Lung Cancer), 1.00E-5 Molar, read-out: Growth Percent
Summary of the method: as §1

[18] = test system: CCRF-CEM; conditions: Homo sapiens, CCRF-CEM (Leukemia), 1.00E-5 Molar, read-out: Growth Percent
Summary of the method: as §1

[19] = test system: NCI-H226; conditions: Homo sapiens, NCI-H226 (Non-Small Cell Lung Cancer), 1.00E-5 Molar, read-out: Growth Percent
Summary of the method: as §1

[20] = test system: HL-60(TB); conditions: Homo sapiens, HL-60(TB) (Leukemia), 1.00E-5 Molar, read-out: Growth Percent
Summary of the method: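 NCI-60 one-dose protocol: compound at 10^−5 M; growth and viability quantified with SRB dye.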

[21] = test system: MDA-MB-435; conditions: Homo sapiens, MDA-MB-435 (Melanoma), 1.00E-5 Molar, read-out: Growth Percent
Summary of the method: as §1

[22] = test system: UACC-62; conditions: Homo sapiens, UACC-62 (Melanoma), 1.00E-5 Molar, read-out: Growth Percent
Summary of the method: as §1

[23] = test system: HCT-116; conditions: Homo sapiens, HCT-116 (Colon Cancer), 1.00E-5 Molar, read-out: Growth Percent
Summary of the method: as §1

[24] = test system: A549/ATCC; conditions: Homo sapiens, A549/ATCC (Non-Small Cell Lung Cancer), 1.00E-5 Molar, read-out: Growth Percent
Summary of the method: as §1

[25] = test system: M14; conditions: Homo sapiens, M14 (Melanoma), 1.00E-5 Molar, read-out: Growth Percent
Summary of the method: as §1

[26] = test system: EKVX; conditions: Homo sapiens, EKVX (Non-Small Cell Lung Cancer), 1.00E-5 Molar, read-out: Growth Percent
Summary of the method: as §1

[27] = test system: SN12C; conditions: Homo sapiens, SN12C (Renal Cancer), 1.00E-5 Molar, read-out: Growth Percent
Summary of the method: as §1

[28] = test system: OVCAR-8; conditions: Homo sapiens, OVCAR-8 (Ovarian Cancer), 1.00E-5 Molar, read-out: Growth Percent
Summary of the method: as §1

[29] = test system: RXF 393; conditions: Homo sapiens, RXF 393 (Renal Cancer), 1.00E-5 Molar, read-out: Growth Percent
Summary of the method: as §1

[30] = test system: OVCAR-3; conditions: Homo sapiens, OVCAR-3 (Ovarian Cancer), 1.00E-5 Molar, read-out: Growth Percent
Summary of the method: as §1

SMILES	activity at 10 µM [1] [%]	activity at 10 µM [2] [%]	activity at 10 µM [3] [%]	activity at 10 µM [4] [%]	activity at 10 µM [5] [%]	activity at 10 µM [6] [%]	activity at 10 µM [7] [%]	activity at 10 µM [8] [%]	activity at 10 µM [9] [%]	activity at 10 µM [10] [%]	activity at 10 µM [11] [%]	activity at 10 µM [12] [%]	activity at 10 µM [13] [%]	activity at 10 µM [14] [%]	activity at 10 µM [15] [%]	activity at 10 µM [16] [%]	activity at 10 µM [17] [%]	activity at 10 µM [18] [%]	activity at 10 µM [19] [%]	activity at 10 µM [20] [%]	other results
COc1ccc(C=C(NC(=O)c2ccccc2)C(=O)Nc2ccc(S(N)(=O)=O)cc2)c(OC)c1 [Compound 5f, N-(1-(2,4-Dimethoxyphenyl)-3-oxo-3-((4-sulfamoylphenyl)amino)prop-1-en-2-yl)benzamide]	103	99.6	99.1	106	102	109	103	92.3	104	106	105	91.9	109	98.2	96.3	112	114	107	98.4	103	activity at 10 µM [21]: 97%; activity at 10 µM [22]: 97.2%; activity at 10 µM [23]: 104%; activity at 10 µM [24]: 94.9%; activity at 10 µM [25]: 111%; activity at 10 µM [26]: 97.3%; activity at 10 µM [27]: 94.8%; activity at 10 µM [28]: 100%; activity at 10 µM [29]: 108%; activity at 10 µM [30]: 113%
COc1ccc(C=C(NC(=O)c2ccccc2)C(=O)Nc2ccc(S(N)(=O)=O)cc2)cc1OC [Compound 5g, N-(1-(3,4-Dimethoxyphenyl)-3-oxo-3-((4-sulfamoylphenyl)amino)prop-1-en-2-yl)benzamide]	109	101	101	106	110	107	99.8	104	101	94.8	105	91.6	107	92.6	103	110	126	109	93.3	101	activity at 10 µM [21]: 107%; activity at 10 µM [22]: 94.3%; activity at 10 µM [23]: 109%; activity at 10 µM [24]: 106%; activity at 10 µM [25]: 113%; activity at 10 µM [26]: 103%; activity at 10 µM [27]: 97.6%; activity at 10 µM [28]: 97.1%; activity at 10 µM [29]: 118%; activity at 10 µM [30]: 107%
Cc1ccc(C=C(NC(=O)c2ccccc2)C(=O)Nc2ccc(S(N)(=O)=O)cc2)o1 [Compound 5h, N-(1-(5-Methylfuran-2-yl)-3-oxo-3-((4-sulfamoylphenyl)amino)prop-1-en-2-yl)benzamide]	98.7	99.4	92.9	86.3	106	101	90.9	84.4	93.2	76.5	97.4	81	84.7	90.2	90.9	112	70.1	96.9	102	94.6	activity at 10 µM [21]: 99.3%; activity at 10 µM [22]: 95%; activity at 10 µM [23]: 89.1%; activity at 10 µM [24]: 90.6%; activity at 10 µM [25]: 114%; activity at 10 µM [26]: 98%; activity at 10 µM [27]: 98.6%; activity at 10 µM [28]: 95.5%; activity at 10 µM [29]: 95.5%; activity at 10 µM [30]: 108%
